From US8629284B2, “Chemical compounds” (Syngenta Crop Protection, LLC, priority 2008, dated 2014)

Columns and labels:
Myzus persicae [1] = test: B2: Myzus persicae (green peach aphid), mixed population, feeding/residual contact activity, preventive; assay type: in vivo; conditions: foliar, 144 h, sunflower leaf discs sprayed with 200 ppm, 6 days incubation, read-out: control of Myzus persicae (mortality)
Protocol: B2: Myzus persicae (green peach aphid) (mixed population, feeding/residual contact activity, preventive)
Sunflower leaf discs were placed on agar in a 24-well microtiter plate and sprayed with test solutions of 200 ppm. After drying, the leaf discs were infested with an aphid population of mixed ages. After an incubation period of 6 days, samples were checked for mortality and special effects (e.g. phytotoxicity).

Myzus persicae [2] = test: B3: Myzus persicae (green peach aphid), mixed population, systemic/feeding activity, curative; assay type: in vivo; conditions: 144 h, roots of infested pea seedlings in test solution of 24 ppm, 6 days after introduction, read-out: control of Myzus persicae (mortality)
Excerpt: B3: Myzus persicae (green peach aphid) (mixed population, systemic/feeding activity, curative)
Roots of pea seedlings, infested with an aphid population of mixed ages, were placed directly in the test solutions of 24 ppm. 6 days after introduction, samples were checked for mortality and special effects on the plant.

SMILES | mortality at 200 ppm (Myzus persicae [1]) [%] | mortality at 24 ppm (Myzus persicae [2]) [%]
CCNC1=NS(=O)(=O)c2cccc(F)c21 [Compound P1.15, N-Ethyl-4-fluoro-1,2-benzisothiazol-3-amine 1,1-dioxide] | ≥ 65 | ≥ 80
N=C1c2c(F)cccc2S(=O)(=O)N1CC1CC1 [Compound P2.3, 4-Fluoro-2-cyclopropylmethyl-1,2-benzisothiazol-3(2H)-imine 1,1-dioxide] |  | ≥ 80
